Values quoted from earlier work in patent US20080292591A1, “Tumor mouse models using lentiviral vectors” (The Salk Institute for Biological Studies, priority 2007, published 2008).

Legend:
[1] = test system: a variety of cell lines
[2] = test system: xenografts of tumors; details: animal models bearing xenografts of tumors

Cc1cc(Nc2cc(N3CCN(C)CC3)nc(Sc3ccc(NC(=O)C4CC4)cc3)n2)n[nH]1 [VX-680]
antiproliferative activity in vitro [1]: broad and potent antiproliferative activity | antitumor activity in animal models [2]: robust antitumor activity
